Assay results reported in patent publication US20090170759A1, “NEUROPROTECTIVE PEPTIDES” (priority 2007, published 2009).

Assays:
[1] = test system: rat hippocampal cultures; assay: Neurite outgrowth assay (MAP2-FITC immunofluorescence), hippocampal cultures; type: cell-based; details: for neurite outgrowth in rat hippocampal cultures (in words): figure legends
Text: (§1) Dissociated hippocampal and cortical cell cultures were established from embryonic day 18 rat fetuses as previously described (Mattson et al., 1994). Briefly, fetuses were removed via cesarean section from pregnant moms (Sprague-Dawley) anesthetized with halothane according to the AVMA Panel on Euthanasia. Pups were decapitated and the brains were removed and placed in HEPES-buffered Hank's Balanced Salt solution (HBSS; Gibco). The hippocampi and cortices were dissected out and pooled according to tissue-type. Tissue was trypsinized for 15 min (1 mg/ml trypsin-HBSS; Worthington), rinsed with fresh HBSS, incubated in trypsin inhibitor (1 mg/ml; Sigma) for 5 min, rinsed again with fresh HBSS and then triturated in 1 ml fresh HBSS with a fire-polished glass pipette. Dissociated cells were seeded at 30,000 cells/well onto poly-D-lysine coated 96-well plates (Collaborative BioScience). Each well contained 100 μl of Eagle's Minimal Essential Media (MEM; Gibco) supplemented with 26 mM NaHCO3 (Sigma), 56 mM glucose (Sigma), 15 mM KCl (Sigma), 1 mM sodium pyruvate (Sigma), 1.1 mM L-glutamine (Sigma), 10% (v/v) heat-inactivated fetal bovine serum (Hyclone), and 0.001% gentamicin sulfate (Sigma) (pH 7.4). Cells were allowed to attach for 24 h in a humidified 37° C. 5% CO2 incubator before experimental treatment. The culture media was aspirated and exchanged with fresh media every three days.
(§2) Twenty-four hours after plating, cultures were treated with vehicle (PBS+0.1% BSA), 100 ng of various growth factors (brain derived neurotrophic factor (BDNF; Promega), glial-derived neurotrophic factor (GDNF; Promega), nerve growth factor (NGF; Boehringer Mannheim), basic fibroblast growth factor (bFGF; Boehringer Mannheim), insulin-like growth factor-1 (IGF-1; Boehringer Mannheim), neurotrophin-3 (NT3; Calbiochem), neurotrophin-4 (NT4; Calbiochem), ciliary neurotrophic factor (CNTF; Calbiochem), epidermal growth factor (EGF; Calbiochem), vascular endothelial growth factor (VEGF; Calbiochem)), or rhEPO (prepared same as above; 10 fM-10 nM)). Each treatment condition was run in quadruplicate or octuplicate. On the third day in culture, the media was aspirated off and replaced with fresh media and test compound. At one week in culture, the cells were fixed with 10% phosphate-buffered formalin for 15 min, then rinsed with DPBS (Sigma) and placed in blocking serum for 30 min (horse serum; 1:50 dilution in DPBS; Vector Labs). Cultures were rinsed again with DPBS and then incubated in primary antibody for 2 hr (microtubule-associated protein-2 (MAP-2) is a selective marker for dendritic processes; anti-mouse monoclonal (Chemicon); 1:1000 dilution of MAP-2 in antibody diluent (Zymed)). Negative control wells were incubated in antibody diluent alone. Background signal was determined by blank wells (cell-free) incubated with or without antibody. Cultures were rinsed again with DPBS and then placed in fluorescein for 1 hr (FITC; anti-mouse IgG; rat adsorbed; 1:50 dilution in DPBS; Vector Labs). Cultures were rinsed a final time with DPBS and then the plates were read on a Cytofluor 4000 fluorescence plate reader. Neurite outgrowth was expressed as percent change from control (vehicle; mean fluorescence±SD).
(§3) Dissociated hippocampal and cortical cell cultures were established from embryonic day 18 rat fetuses as previously described (Mattson et al., 1994). Briefly, fetuses were removed via cesarean section from pregnant moms (Sprague-Dawley) anesthetized with halothane according to the AVMA Panel on Euthanasia. Pups were decapitated and the brains were removed and placed in HEPES-buffered Hank's Balanced Salt solution (HBSS; Gibco). The hippocampi and cortices were dissected out and pooled according to tissue-type. […]

[2] = test system: rat cerebral cortical cultures; assay: Neurite outgrowth assay (MAP2-FITC immunofluorescence), cortical cultures; type: cell-based; details: figure legends
Text: as §1, §2, §3

Row | Sequence | neurite outgrowth in rat hippocampal cultures (in words) [1] | neurite outgrowth in rat cerebral cortical cultures (in words) [2] | neurite outgrowth increase over vehicle at peak activity, hippocampal cultures ([1]; Example 4, 10 fM-10 nM tested)
1 | GGTASCHFGPLTWVCKPQGG [EMP-6] | promotes neurite outgrowth | promotes neurite outgrowth | –
2 | GGTYSCFGPLTWVCKPQGG [EMP-27] | promotes neurite outgrowth | promotes neurite outgrowth | –
3 | GGTYSCHFAPLTWVCKPQGG [EMP-9] | promotes neurite outgrowth | promotes neurite outgrowth | –
4 | GGTYSCHFGPLTWVCKPQGG [EMP-1] | promotes neurite outgrowth | promotes neurite outgrowth | –
5 | YCHFGPLTWVC [EMP-23] | promotes neurite outgrowth | promotes neurite outgrowth | 43-46%
